These results are taken from paper PMC7558535, “In Vitro Metabolism of DWP16001, a Novel Sodium-Glucose Cotransporter 2 Inhibitor, in Human and Animal Hepatocytes” (Pharmaceutics, 2020).

In one series the test system is 13 human UGT enzymes. The experiment in a line: UGT screening, whole panel. It counts as in vitro ADME. Conditions: incubation of DWP16001 with 13 human UGT enzymes, UDPGA. On the procedure:
(§1) To screen for UGT enzymes responsible for glucuronidation of DWP16001, 100 μL of reaction mixtures containing 13 human cDNA-expressed UGT enzymes (1A1, 1A3, 1A4, 1A6, 1A7, 1A8, 1A9, 1A10, 2B4, 2B7, 2B10, 2B15, and 2B17) at 0.1 mg protein/mL, 5 mM UDPGA, 0.025 mg/mL alamethicin, and 25 μM DWP16001 or M1 in 50 mM Tris buffer (pH 7.4) were incubated at 37 °C for 30 min in triplicate. Reactions were stopped by adding 100 μL of ketoconazole (internal standard, 200 ng/mL) in acetonitrile, followed by vortex-mixing and centrifugation (15,000× g, 8 min, 4 °C). The supernatant (75 μL) was diluted with equal volume of 30% acetonitrile and aliquots (5 μL) were injected into an LC-MS/MS system.

For a further series, the system named is SGLT2. Details: method as in PMID 32183468. The settings on record: read-out: IC50 (SGLT2 inhibition); cited from earlier work.
Series [1] can be described thus: Metabolic stability in human hepatocytes. It counts as in vitro ADME. Conditions: pooled cryopreserved hepatocytes. On the procedure:
(§2) To evaluate the metabolic stability of DWP16001 in human, dog, monkey, mouse, and rat hepatocytes, pooled cryopreserved hepatocytes were carefully thawed in recovery medium and resuspended in incubation medium (Krebs–Henseleit buffer for mouse, rat, and human; William’s E media for dog and monkey) to 0.5 × 10^6 cells/mL for mouse, 0.67 × 10^6 cells/mL for rat, and 1.0 × 10^6 cells/mL for dog, monkey, and human in accordance with the manufacturer’s protocols. Then, 60-μL aliquots of these hepatocyte suspensions and an equal volume of 2 μM DWP16001 in incubation medium were mixed in 96-well plates and incubated in triplicate for 0, 30, 60, 90, 120, 180, or 240 min in a CO2 incubator at 37 °C. Reactions were stopped by addition of 120 µL of ice-cold acetonitrile to each well and the cell suspension was sonicated for 5 min at 4 °C, followed by centrifugation at 15,000× g for 10 min at 4 °C after 5 min of sonication. 80-µL aliquots of the supernatants were then vortex-mixed with 20 μL of ice-cold ketoconazole (an internal standard) in acetonitrile and analyzed by LC–tandem mass spectrometry (LC-MS/MS). The peak area ratios of DWP16001 versus internal standard at each sampling point were used for the subsequent calculation. Elimination parameters, including half-life (t1/2), intrinsic clearance (Clint), and hepatic clearance (Clhep) of DWP16001 in mouse, rat, dog, monkey, and human were calculated by the following equations [19]. (1) t1/2min=ln2/−k elimination slope (2) ClintmL/min/kg=ln2/t1/2×mL incubation/hepatocytes 10^6 cells×B×10^6 cells/g liver×A g liver/kg BW (3) ClhepmL/min/kg=Qh×Clint/Qh+Clint (4) Hepatic extraction ratio = Clhep/Qh
(§3) Here, A has values of 87.5, 40, 32, 32, and 25.7; B has values of 135, 117, 215, 120, and 139; Qh (representing hepatic blood flow) has values of 90, 55.2, 30.9, 43.4, and 20.7 mL/min/kg, for mouse, rat, dog, monkey, and human, respectively. Hepatic extraction ratio values of ≤ 0.25, 0.25–0.75, and ≥ 0.75 were regarded as low, moderate, and high, respectively.

The test system of the next series is human hepatocytes. The experiment in a line: Metabolic stability in human hepatocytes. It counts as in vitro ADME. On the procedure:
as §2, §3

For the next series, the target named is T1, UGT2B7 (Homo sapiens, UniProt P16662).
T1 construct: purchased Corning Life Sciences
T1 sequence (P16662 24-529): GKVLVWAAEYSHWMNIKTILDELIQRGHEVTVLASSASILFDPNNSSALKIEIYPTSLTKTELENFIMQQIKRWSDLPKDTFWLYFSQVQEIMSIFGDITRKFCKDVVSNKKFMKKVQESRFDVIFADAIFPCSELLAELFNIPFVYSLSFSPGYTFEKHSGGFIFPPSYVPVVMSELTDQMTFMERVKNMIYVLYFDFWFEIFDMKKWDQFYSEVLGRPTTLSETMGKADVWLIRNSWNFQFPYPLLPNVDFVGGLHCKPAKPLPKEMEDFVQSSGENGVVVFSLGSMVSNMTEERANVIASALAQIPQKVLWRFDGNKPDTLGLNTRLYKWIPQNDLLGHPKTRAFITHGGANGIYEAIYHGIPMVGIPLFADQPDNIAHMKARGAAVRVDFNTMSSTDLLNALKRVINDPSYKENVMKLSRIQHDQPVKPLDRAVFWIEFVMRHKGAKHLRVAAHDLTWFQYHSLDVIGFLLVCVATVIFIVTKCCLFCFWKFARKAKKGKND
The experiment in a line: UGT screening, cDNA-expressed UGT2B7. It counts as in vitro ADME. On the procedure:
as §1

On to `OC[C@H]1O[C@@H](c2cc(Cc3ccc(C4CC4)cc3)c(Cl)c3c2CCO3)[C@H](O)[C@@H](O)[C@@H]1O` [DWP16001, (2S,3R,4R,5S,6R)-2-(7-chloro-6-(4-cyclopropylbenzyl)-2,3-dihydrobenzofuran-4-yl)-6-(hydroxymethyl)tetrahydro-2H-pyran-3,4,5-triol], for which the “Formation of U3 from DWP16001” value in the series with 13 human UGT enzymes is listed as “not formed”. Also, in the series with SGLT2, the IC50 was 0.8 ± 0.3 nM. Further, the CLint scaled at 1 μM in series [1] worked out at 5.7 mL/min/kg. This molecule also gave a half-life at 1 μM in series [1] (37 °C, 0-240 min) of 14.4 h. Further, in the series on human hepatocytes, the Hepatic extraction ratio is recorded as 0.22 and the “Hepatic extraction ratio class” value is given as “low (Hepatic extraction ratio values of ≤ 0.25)”. This molecule came in with a Clhep with human hepatocytes (well-stirred model) of 4.5 mL/min/kg. Besides, the “Substrate of UGT2B7” value on UGT2B7 is “substrate”.

In general, IC50 refers to the point on the concentration scale where inhibition reaches its midpoint. One may read the CLint scaled as a measure of how fast metabolising enzymes remove a compound, apart from limits set by blood flow. The low end stands for greater metabolic stability, the high end for faster metabolism. One may read the half-life as the time in which the quantity being followed falls by half. A higher half-life goes with slow decline.
